The text below walks through data of patent US20260035365A1, “1H-PYRROLO[3,2-B]PYRIDINE DERIVATIVES AS IRREVERSIBLE INHIBITORS OF MUTANT EGFR FOR THE TREATMENT OF CANCER” (Bayer Aktiengesellschaft, priority 2022, published 2026).

By IC50 is commonly meant the point on the concentration scale where inhibition reaches its midpoint.

Assay [1] has as its system BA/F3 (EGFR D770_N771 insSVD T790M) cells. The experiment in a line: Ba/F3 cell survival assay (Cell Titer-Glo), EGFR-insSVD T790M. It is filed as cell-based. The following applies: Ba/F3 EGFR-D770-N771ins_SVD; 48 h, without IL-3, with EGF. On the procedure: 293T cells from ATCC were transfected with pBABEpuro expression constructs for WT EGFR or EGFR-insSVD, or EGFR-insSVD T790M, and pCL-Eco packaging vector using Fugene-6 transfection reagent from Promega. Plates were incubated at 37° C. for 48 h. Retrovirus was harvested by filtering the media supernatant through a 0.45 μm filter.
Ba/F3 cells purchased from DSMZ were grown in RPMI+10% FBS+10 ng/mL IL-3 and infected with filtered retroviral supernatant at a 1:2 dilution. Polybrene was added to a concentration of 8 μg/mL, plates were spun for 90 min, and incubated for 16 h at 37° C. 2 μg/mL puromycin was added to the infected cells 24 h after infection and cells were continually grown in the presence of puromycin and 10 ng/mL IL-3. Following stably expressing Ba/F3 cell lines were generated: Ba/F3-EGFR-WT, Ba/F3-EGFR-insSVD, Ba/F3-EGFR-insSVD T790M, (Ba/F3-vector-control).
For cell survival assays, Ba/F3 cells were grown to a density of 1-2 million cells per mL, spun down and resuspended in media without IL-3, and replated at a concentration of 200,000-500,000 cells per mL. The cells ectopically expressing WT EGFR, EGFR-insSVD, or EGFR-insSVD T790M were plated with 10 ng/mL Millipore Culture grade EGF. The cells ectopically expressing pBABEpuro empty vector were plated with 10 ng/mL IL-3.
2 days later, cells were plated in 50 μL in a 384 well plate at a concentration of 4000 cells per well for cells assayed in the absence of IL-3 and 2000 cells per well for cells assayed in the presence of IL-3. 100 nL of compound was added to each well using a 100 nL pin head, and plates were incubated at 37° C. for 48 h.
Cell viability was measured by adding 20 μL of Cell Titer-Glo Luminescent Cell Viability Reagent diluted 1:3 in PBS. Plates were sealed with Perkin Elmer Top-Seal, inverted several times to mix, and immediately centrifuged at 1000 rpm for 2 min. Plates were incubated in low light conditions for 8-10 min and luminescence was measured.

Assay [2] relates to BA/F3 (insSVD) cells. In words: Ba/F3 cell survival assay (Cell Titer-Glo), EGFR-insSVD. It is filed as cell-based. The following applies: Mus musculus, BaF3, 48 h, without IL-3, with EGF. An outline of the steps:
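Ba/F3 cells stably expressing EGFR-insSVD or insSVD T790M via retrovirus (puromycin-selected), switched from IL-3 to 10 ng/mL EGF for 2 days, then plated at 4000 cells/well. Compound added by 100 nL pin transfer; 48 h at 37° C. Viability by CellTiter-Glo luminescence.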

In assay [3] the target is mutEGFR (D770_N771insSVD) (Homo sapiens, UniProt P00533, INS767SVD). The experiment in a line: Exon20-mutant-EGFR (D770_N771insSVD) TR-FRET kinase assay. It is filed as biochemical. The following applies: 2 mM ATP, 15 min preincubation. An outline of the steps:
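GST-fused human EGFR fragment R669-A1210 carrying the SVD insertion, Sf9-expressed, typically 15 pg/μl, was preincubated with compound for 15 min at 22° C in pH 7.0 Hepes/MgCl2 buffer. Phosphorylation was read by HTRF (665/620 nm ratio), normalised to no-inhibitor and no-enzyme controls.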
In general terms: Time-resolved FRET reads energy transfer from a long-lived donor to a nearby acceptor.

Assay [4] deals with mutEGFR (D770_N771insNPG, T790). In words: mutEGFR (D770_N771insNPG, T790) kinase assay. It is filed as biochemical, human.
Chain of mutEGFR (D770_N771insNPG, T790) (P00533 with tags, fused parts or gaps INS770NPG limits assumed): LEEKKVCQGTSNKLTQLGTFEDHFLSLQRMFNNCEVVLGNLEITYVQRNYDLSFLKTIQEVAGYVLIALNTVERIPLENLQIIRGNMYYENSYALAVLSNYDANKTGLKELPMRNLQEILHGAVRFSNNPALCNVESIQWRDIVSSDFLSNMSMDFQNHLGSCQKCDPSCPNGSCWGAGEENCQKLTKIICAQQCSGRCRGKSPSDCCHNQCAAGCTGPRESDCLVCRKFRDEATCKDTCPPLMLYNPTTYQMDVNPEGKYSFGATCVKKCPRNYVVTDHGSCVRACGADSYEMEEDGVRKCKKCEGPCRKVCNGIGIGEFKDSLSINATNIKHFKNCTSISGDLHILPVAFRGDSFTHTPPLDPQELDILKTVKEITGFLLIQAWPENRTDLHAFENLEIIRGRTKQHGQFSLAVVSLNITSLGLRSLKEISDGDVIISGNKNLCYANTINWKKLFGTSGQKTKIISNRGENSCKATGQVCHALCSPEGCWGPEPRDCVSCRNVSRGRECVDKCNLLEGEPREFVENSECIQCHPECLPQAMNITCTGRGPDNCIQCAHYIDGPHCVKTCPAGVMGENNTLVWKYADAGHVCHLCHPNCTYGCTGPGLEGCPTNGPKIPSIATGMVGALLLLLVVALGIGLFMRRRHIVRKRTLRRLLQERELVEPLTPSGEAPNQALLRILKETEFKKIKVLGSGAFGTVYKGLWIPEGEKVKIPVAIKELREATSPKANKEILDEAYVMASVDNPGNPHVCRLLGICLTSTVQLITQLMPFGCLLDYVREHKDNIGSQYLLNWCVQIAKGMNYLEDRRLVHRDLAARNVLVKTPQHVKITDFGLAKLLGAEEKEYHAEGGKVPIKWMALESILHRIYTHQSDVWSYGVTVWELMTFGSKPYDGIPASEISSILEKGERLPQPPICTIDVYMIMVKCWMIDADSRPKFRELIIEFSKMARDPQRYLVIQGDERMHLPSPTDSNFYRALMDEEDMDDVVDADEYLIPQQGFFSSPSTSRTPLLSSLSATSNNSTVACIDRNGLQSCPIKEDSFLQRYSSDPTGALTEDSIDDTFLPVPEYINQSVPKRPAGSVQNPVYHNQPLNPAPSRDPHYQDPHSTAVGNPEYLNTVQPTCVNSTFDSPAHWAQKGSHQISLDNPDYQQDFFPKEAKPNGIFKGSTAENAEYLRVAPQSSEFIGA

Chain of mutEGFR (D770_N771insSVD) (P00533 with tags, fused parts or gaps INS767SVD limits assumed): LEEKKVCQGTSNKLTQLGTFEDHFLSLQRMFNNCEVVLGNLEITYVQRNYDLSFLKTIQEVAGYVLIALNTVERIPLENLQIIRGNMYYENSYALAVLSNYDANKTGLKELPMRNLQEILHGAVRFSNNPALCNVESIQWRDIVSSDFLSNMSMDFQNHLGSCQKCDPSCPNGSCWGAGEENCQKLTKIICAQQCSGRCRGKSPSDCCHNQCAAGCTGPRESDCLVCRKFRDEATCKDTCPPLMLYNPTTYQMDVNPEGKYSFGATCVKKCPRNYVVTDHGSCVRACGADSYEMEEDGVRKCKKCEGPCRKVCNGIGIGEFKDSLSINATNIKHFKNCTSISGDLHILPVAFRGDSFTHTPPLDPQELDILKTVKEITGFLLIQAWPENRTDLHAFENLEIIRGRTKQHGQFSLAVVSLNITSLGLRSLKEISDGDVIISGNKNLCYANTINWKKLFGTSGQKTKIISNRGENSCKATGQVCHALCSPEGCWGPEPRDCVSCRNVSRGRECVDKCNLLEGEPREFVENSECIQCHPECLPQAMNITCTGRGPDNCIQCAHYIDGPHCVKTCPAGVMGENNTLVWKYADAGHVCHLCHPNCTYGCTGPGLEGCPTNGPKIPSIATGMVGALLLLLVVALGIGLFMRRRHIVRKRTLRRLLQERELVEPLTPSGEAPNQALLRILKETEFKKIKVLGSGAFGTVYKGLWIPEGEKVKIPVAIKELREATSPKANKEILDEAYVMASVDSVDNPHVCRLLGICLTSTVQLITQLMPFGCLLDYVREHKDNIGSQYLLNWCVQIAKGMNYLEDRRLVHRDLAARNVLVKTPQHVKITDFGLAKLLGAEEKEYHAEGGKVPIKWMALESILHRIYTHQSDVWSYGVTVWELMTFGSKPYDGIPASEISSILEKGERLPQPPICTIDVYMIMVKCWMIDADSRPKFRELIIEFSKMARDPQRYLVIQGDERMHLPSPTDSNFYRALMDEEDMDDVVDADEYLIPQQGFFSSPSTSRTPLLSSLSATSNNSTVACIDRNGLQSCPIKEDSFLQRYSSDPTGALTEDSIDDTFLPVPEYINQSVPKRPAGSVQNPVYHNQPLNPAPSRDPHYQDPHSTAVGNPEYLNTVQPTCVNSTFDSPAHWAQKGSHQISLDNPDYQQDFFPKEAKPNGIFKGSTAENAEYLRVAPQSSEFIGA

For the compound `C=CS(=O)(=O)N(C)CCOc1cnccc1-c1[nH]c2cccnc2c1-c1ccccc1` [Example 25, N-methyl-N-(2-{[4-(3-phenyl-1H-pyrrolo[3,2-b]pyridin-2-yl)pyridin-3-yl]oxy}ethyl)ethenesulfonamide], the IC50 in assay [1] was 3860 nM; in assay [2] it was 38.8 nM; in assay [3], 0.501 nM; in assay [4] it was 2.08 nM.

Take `CN(C)C/C=C/C(=O)N(C)CCOc1cnccc1-c1[nH]c2cccnc2c1-c1ccccc1` [Example 26, (2E)-4-(dimethylamino)-N-methyl-N-(2-{[4-(3-phenyl-1H-pyrrolo[3,2-b]pyridin-2-yl)pyridin-3-yl]oxy}ethyl)but-2-enamide]: the IC50 came out at 9980 nM in assay [1], 1530 nM in assay [2], 65.9 nM in assay [3] and 333 nM in assay [4].

`C#CC(=O)N(C)CCOc1cnccc1-c1[nH]c2cccnc2c1-c1ccccc1` [Example 27, N-methyl-N-(2-{[4-(3-phenyl-1H-pyrrolo[3,2-b]pyridin-2-yl)pyridin-3-yl]oxy}ethyl)prop-2-ynamide]: the half-maximal inhibitory concentration (IC50) was determined as 8410 nM in assay [1], 532 nM in assay [2], 19.7 nM in assay [3] and 69.8 nM in assay [4].

Turning to `CC#CC(=O)N(C)CCOc1cnccc1-c1[nH]c2cccnc2c1-c1ccccc1` [Example 28, N-methyl-N-(2-{[4-(3-phenyl-1H-pyrrolo[3,2-b]pyridin-2-yl)pyridin-3-yl]oxy}ethyl)but-2-ynamide], the IC50 was 9980 nM in assay [1], 9980 nM in assay [2], 6500 nM in assay [3] and more than 20000 nM in assay [4].

In the case of `C=CS(=O)(=O)N(C)CCOc1cnccc1-c1[nH]c2cccnc2c1-c1cccc(Cl)c1` [Example 29, N-[2-({4-[3-(3-chlorophenyl)-1H-pyrrolo[3,2-b]pyridin-2-yl]pyridin-3-yl}oxy)ethyl]-N-methylethenesulfonamide], the 50% inhibitory concentration (IC50) in assay [1] stood at 3130 nM; in assay [2], 52.4 nM; in assay [3], 0.349 nM; in assay [4] it was 0.801 nM.

Consider `C=CS(=O)(=O)N(C)CCOc1cnccc1-c1[nH]c2cccnc2c1-c1ccc2cc[nH]c2c1` [Example 30, N-[2-({4-[3-(1H-indol-6-yl)-1H-pyrrolo[3,2-b]pyridin-2-yl]pyridin-3-yl}oxy)ethyl]-N-methylethenesulfonamide], for which the half-maximal inhibitory concentration (IC50) in assay [1] is 831 nM; in assay [2] it was 62.2 nM; in assay [3] it was 0.513 nM; in assay [4], 1.82 nM.

Regarding `C=CC(=O)N(C)CCOc1cnccc1-c1[nH]c2cccnc2c1-c1cc(Cl)cc(Cl)c1` [Example 31, N-[2-({4-[3-(3,5-dichlorophenyl)-1H-pyrrolo[3,2-b]pyridin-2-yl]pyridin-3-yl}oxy)ethyl]-N-methylprop-2-enamide], the 50% inhibitory concentration (IC50) in assay [1] stood at 9980 nM; in assay [2], 5530 nM; in assay [3], 931 nM; in assay [4] it was 391 nM.

With `C=CC(=O)N(CC)CCOc1cnccc1-c1[nH]c2cccnc2c1-c1ccccc1` [Example 32, N-ethyl-N-(2-{[4-(3-phenyl-1H-pyrrolo[3,2-b]pyridin-2-yl)pyridin-3-yl]oxy}ethyl)prop-2-enamide], the 50% inhibitory concentration (IC50) is 9650 nM in assay [1], 364 nM in assay [2], 15.1 nM in assay [3] and 29.9 nM in assay [4].

In the case of `C=CS(=O)(=O)N(CC)CCOc1cnccc1-c1[nH]c2cccnc2c1-c1ccccc1` [Example 33, N-ethyl-N-(2-{[4-(3-phenyl-1H-pyrrolo[3,2-b]pyridin-2-yl)pyridin-3-yl]oxy}ethyl)ethenesulfonamide], the IC50 amounted to 253 nM in assay [1], 30.7 nM in assay [2], 0.357 nM in assay [3] and 1.92 nM in assay [4].

With `C=CC(=O)N1CCC[C@H]1COc1cnccc1-c1[nH]c2cccnc2c1-c1ccccc1` [Example 34, 1-[(2S)-2-({[4-(3-phenyl-1H-pyrrolo[3,2-b]pyridin-2-yl)pyridin-3-yl]oxy}methyl)pyrrolidin-1-yl]prop-2-en-1-one], the IC50 turned out to be 750 nM in assay [1], 16.9 nM in assay [2], 0.367 nM in assay [3] and 2.06 nM in assay [4].

Regarding `C=CC(=O)N1CCC[C@@H]1COc1cnccc1-c1[nH]c2cccnc2c1-c1ccccc1` [Example 35, 1-[(2R)-2-({[4-(3-phenyl-1H-pyrrolo[3,2-b]pyridin-2-yl)pyridin-3-yl]oxy}methyl)pyrrolidin-1-yl]prop-2-en-1-one], the IC50 worked out at 9980 nM in assay [1], 1400 nM in assay [2], 53.6 nM in assay [3] and 349 nM in assay [4].

Take `C=CS(=O)(=O)N1CCC[C@H]1COc1cnccc1-c1[nH]c2cccnc2c1-c1ccccc1` [Example 36, 2-(3-{[(2S)-1-(ethenesulfonyl)pyrrolidin-2-yl]methoxy}pyridin-4-yl)-3-phenyl-1H-pyrrolo[3,2-b]pyridine]: the IC50 in assay [1] worked out at 44.6 nM; in assay [2], 3.27 nM; in assay [3], 0.104 nM; in assay [4], 0.308 nM.

Regarding `CN(C)C/C=C/C(=O)N1CCC[C@H]1COc1cnccc1-c1[nH]c2cccnc2c1-c1ccccc1` [Example 37, (2E)-4-(dimethylamino)-1-[(2S)-2-({[4-(3-phenyl-1H-pyrrolo[3,2-b]pyridin-2-yl)pyridin-3-yl]oxy}methyl)pyrrolidin-1-yl]but-2-en-1-one], the IC50 came out at 9130 nM in assay [1], 229 nM in assay [2], 3.7 nM in assay [3] and 11.2 nM in assay [4].

Turning to `C=CS(=O)(=O)N1CCC[C@H]1COc1cnccc1-c1[nH]c2cccnc2c1-c1cccc(C(F)(F)F)c1` [Example 38, 2-(3-{[(2S)-1-(ethenesulfonyl)pyrrolidin-2-yl]methoxy}pyridin-4-yl)-3-[3-(trifluoromethyl)phenyl]-1H-pyrrolo[3,2-b]pyridine], the half-maximal inhibitory concentration (IC50) in assay [1] is 147 nM; in assay [2] it was 20.1 nM; in assay [3] it was 0.404 nM; in assay [4] it was 1.05 nM.

Consider `C=CC(=O)N1CCC[C@H]1COc1cnccc1-c1[nH]c2cccnc2c1-c1cccc(C(F)(F)F)c1` [Example 39, 1-[(2S)-2-{[(4-{3-[3-(trifluoromethyl)phenyl]-1H-pyrrolo[3,2-b]pyridin-2-yl}pyridin-3-yl)oxy]methyl}pyrrolidin-1-yl]prop-2-en-1-one], for which the half-maximal inhibitory concentration (IC50) in assay [1] was 5400 nM; in assay [2], 91.4 nM; in assay [3] it was 1.19 nM; in assay [4], 5.22 nM.

With `C=CS(=O)(=O)N1CCC[C@H]1COc1cnccc1-c1[nH]c2cccnc2c1-c1cccc(Cl)c1` [Example 40, 3-(3-chlorophenyl)-2-(3-{[(2S)-1-(ethenesulfonyl)pyrrolidin-2-yl]methoxy}pyridin-4-yl)-1H-pyrrolo[3,2-b]pyridine], the IC50 in assay [1] was found to be 67.9 nM; in assay [2] it was 8.54 nM; in assay [3] it was 0.193 nM; in assay [4], 0.29 nM.

For the compound `C=CC(=O)N1CCC[C@H]1COc1cnccc1-c1[nH]c2cccnc2c1-c1cccc(Cl)c1` [Example 41, 1-{(2S)-2-[({4-[3-(3-chlorophenyl)-1H-pyrrolo[3,2-b]pyridin-2-yl]pyridin-3-yl}oxy)methyl]pyrrolidin-1-yl}prop-2-en-1-one], the IC50 was 782 nM in assay [1], 25.9 nM in assay [2], 0.319 nM in assay [3] and 0.988 nM in assay [4].

Turning to `C=CC(=O)N1CCC[C@H]1COc1cnccc1-c1[nH]c2cccnc2c1-c1cc(Cl)ccc1F` [Example 42, 1-{(2S)-2-[({4-[3-(5-chloro-2-fluorophenyl)-1H-pyrrolo[3,2-b]pyridin-2-yl]pyridin-3-yl}oxy)methyl]pyrrolidin-1-yl}prop-2-en-1-one], the concentration for half-maximal inhibition (IC50) was found to be 3640 nM in assay [1], 44.7 nM in assay [2], 1.11 nM in assay [3] and 2.84 nM in assay [4].
